Data from article PMC2553423 (Glycobiology, 2008).

T1: EngPA (Cutibacterium acnes, UniProt A0ABM7H013)
T1 sequence (A0ABM7H013 1-1321): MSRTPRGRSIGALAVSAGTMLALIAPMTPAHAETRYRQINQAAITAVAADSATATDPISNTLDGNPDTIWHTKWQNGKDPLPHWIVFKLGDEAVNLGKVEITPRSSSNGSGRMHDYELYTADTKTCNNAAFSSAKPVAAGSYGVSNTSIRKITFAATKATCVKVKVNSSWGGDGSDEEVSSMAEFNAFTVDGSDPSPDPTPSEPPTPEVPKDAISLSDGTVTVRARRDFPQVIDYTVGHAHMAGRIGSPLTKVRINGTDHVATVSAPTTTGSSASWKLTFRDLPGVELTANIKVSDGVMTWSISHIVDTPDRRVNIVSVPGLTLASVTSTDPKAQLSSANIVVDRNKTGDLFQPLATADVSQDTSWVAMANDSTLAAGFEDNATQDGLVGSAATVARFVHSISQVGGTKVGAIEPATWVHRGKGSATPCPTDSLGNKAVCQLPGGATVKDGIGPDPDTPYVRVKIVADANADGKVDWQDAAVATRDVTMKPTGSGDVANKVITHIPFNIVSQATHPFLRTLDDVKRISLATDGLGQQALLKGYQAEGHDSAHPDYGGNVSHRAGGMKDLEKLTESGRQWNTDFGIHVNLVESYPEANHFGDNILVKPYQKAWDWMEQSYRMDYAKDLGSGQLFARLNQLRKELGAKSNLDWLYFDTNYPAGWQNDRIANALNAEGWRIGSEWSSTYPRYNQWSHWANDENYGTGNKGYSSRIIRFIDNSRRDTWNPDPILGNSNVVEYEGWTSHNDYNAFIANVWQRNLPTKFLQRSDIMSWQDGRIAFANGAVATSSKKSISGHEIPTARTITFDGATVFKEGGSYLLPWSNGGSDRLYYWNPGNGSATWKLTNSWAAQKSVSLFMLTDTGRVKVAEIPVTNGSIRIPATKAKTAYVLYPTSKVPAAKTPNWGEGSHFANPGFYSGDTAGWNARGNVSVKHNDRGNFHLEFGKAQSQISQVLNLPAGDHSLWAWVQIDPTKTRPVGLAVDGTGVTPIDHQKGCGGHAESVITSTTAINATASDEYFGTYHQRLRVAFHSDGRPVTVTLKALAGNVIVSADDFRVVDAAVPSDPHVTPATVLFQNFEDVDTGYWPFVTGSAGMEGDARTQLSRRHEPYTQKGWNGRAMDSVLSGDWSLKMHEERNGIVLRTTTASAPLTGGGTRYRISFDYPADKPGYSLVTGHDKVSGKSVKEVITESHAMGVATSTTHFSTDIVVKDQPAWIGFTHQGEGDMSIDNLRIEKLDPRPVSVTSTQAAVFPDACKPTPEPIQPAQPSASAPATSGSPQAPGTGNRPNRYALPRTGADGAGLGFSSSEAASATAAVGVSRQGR

T2: EngEF (Enterococcus faecalis, UniProt Q833X5)
T2 sequence (Q833X5 1-1324): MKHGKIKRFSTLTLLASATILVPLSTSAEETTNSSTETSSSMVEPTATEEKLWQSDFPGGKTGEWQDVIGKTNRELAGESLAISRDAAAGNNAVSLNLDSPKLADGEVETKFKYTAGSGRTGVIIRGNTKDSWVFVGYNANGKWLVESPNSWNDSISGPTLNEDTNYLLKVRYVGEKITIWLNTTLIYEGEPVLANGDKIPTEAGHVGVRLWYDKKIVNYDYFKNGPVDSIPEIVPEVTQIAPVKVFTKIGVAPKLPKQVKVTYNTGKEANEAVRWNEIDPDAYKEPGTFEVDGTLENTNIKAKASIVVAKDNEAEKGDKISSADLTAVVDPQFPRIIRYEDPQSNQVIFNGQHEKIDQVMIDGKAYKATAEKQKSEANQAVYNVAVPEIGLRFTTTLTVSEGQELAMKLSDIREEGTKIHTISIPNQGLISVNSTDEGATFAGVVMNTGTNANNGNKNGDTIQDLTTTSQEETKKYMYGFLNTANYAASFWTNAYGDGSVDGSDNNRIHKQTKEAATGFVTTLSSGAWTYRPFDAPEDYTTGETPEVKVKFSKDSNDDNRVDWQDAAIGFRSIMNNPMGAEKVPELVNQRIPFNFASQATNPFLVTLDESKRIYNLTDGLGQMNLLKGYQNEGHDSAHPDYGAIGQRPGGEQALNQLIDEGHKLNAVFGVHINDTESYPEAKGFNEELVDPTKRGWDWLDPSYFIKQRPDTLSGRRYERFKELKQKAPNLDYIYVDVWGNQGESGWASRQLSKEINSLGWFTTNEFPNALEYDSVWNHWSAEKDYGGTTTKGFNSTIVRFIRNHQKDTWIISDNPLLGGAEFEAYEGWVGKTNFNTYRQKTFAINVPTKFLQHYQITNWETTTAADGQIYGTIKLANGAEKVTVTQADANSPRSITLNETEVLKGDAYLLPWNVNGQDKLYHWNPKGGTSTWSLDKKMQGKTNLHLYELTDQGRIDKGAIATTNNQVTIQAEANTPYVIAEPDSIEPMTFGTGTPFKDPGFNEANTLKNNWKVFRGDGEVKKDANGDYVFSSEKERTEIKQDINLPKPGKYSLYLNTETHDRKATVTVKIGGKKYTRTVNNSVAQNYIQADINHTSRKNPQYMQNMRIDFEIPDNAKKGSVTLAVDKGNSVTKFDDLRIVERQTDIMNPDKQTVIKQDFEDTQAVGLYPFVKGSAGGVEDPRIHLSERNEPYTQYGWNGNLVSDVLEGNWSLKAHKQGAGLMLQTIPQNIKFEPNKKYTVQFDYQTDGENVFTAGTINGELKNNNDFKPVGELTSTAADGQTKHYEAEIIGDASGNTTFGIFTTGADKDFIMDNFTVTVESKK

B1: EngEF (Enterococcus faecalis V583) (protein)
chain: T2 sequence (Q833X5 1-1324)

How the values were obtained:
[1] = target: EngSP (Streptococcus pneumoniae, UniProt Q2MGH6); experiment: steady-state kinetics, pNP release at […] nm; assay type: biochemical; conditions: 50 mM sodium phosphate pH 7.5, 5 mM MgCl2, 25°C
[2] = target: EngCP (Clostridium perfringens, UniProt A0A0H2YQ40); assay type: biochemical
[3] = system: EngAL; experiment: steady-state kinetics, pNP release at […] nm; assay type: biochemical, Alcaligenes sp.; conditions: 50 mM sodium phosphate pH 7.5, 5 mM MgCl2, 25°C
[4] = target: T1, EngPA; experiment: steady-state kinetics, pNP release at […] nm; assay type: biochemical; conditions: 50 mM sodium phosphate pH 7.5, 5 mM MgCl2, 25°C
[5] = target: T2, EngEF; experiment: steady-state kinetics, pNP release at […] nm; conditions: 50 mM sodium phosphate pH 7.5, 5 mM MgCl2, 25°C
[6] = substrate: CC(=O)N[C@H]1[C@H](O[C@H]2[C@@H](O)[C@@H](CO)O[C@H](Oc3ccc([N+](=O)[O-])cc3)[C@@H]2NC(C)=O)O[C@H](CO)[C@@H](O)[C@@H]1O; experiment: purified protein; conditions: 50 mM sodium phosphate pH 7.5, 5 mM MgCl2, 25°C

Molecule	Km [1] [µM]	Km [2] [µM]	Km [3] [µM]	Km [4] [µM]	Km [5] [µM]	Km [6] [µM]	kcat [6] [s⁻¹]
CC(=O)N[C@H]1[C@@H](Oc2ccc([N+](=O)[O-])cc2)O[C@H](CO)[C@H](O)[C@@H]1O[C@@H]1O[C@H](CO)[C@H](O)[C@H](O)[C@H]1O [Galβ1,3GalNAcα1pNP]	40.4	70.9	33.9	3.78	47.9		
B1						20.03	9.43
